“And” between values parts separate entries of the source, which are not always exact repeats. Equal entries are not always repeated. Toxic doses and inconclusive results are not listed. Rule for the calls: active = survival T/C of 150% or more; inactive = T/C below 125% in these data.
System: C57BL/6 mice, intracerebral ependymoblastoma, median survival T/C
Assay: NCI In Vivo Anticancer Drug Screen. Data for tumor model Ependymoblastoma (intracerebral) in C57BL/6 mice
Conditions: endpoint: median survival time, higher = longer survival
Experimental: The antitumor activity of compounds was measured in mice bearing transplantable tumors. Survival or tumor size were measured and the results are expressed as the measurement made in the treated group (T) divided by the measurement made in the vehicle treated control group (C). The tumor model used in this assay is Ependymoblastoma (intracerebral) in C57BL/6 mice

[1] = dose: 32.0 mg/kg/injection, schedule: Q01DX005 (ip), vehicle: saline
[2] = dose: 4.0 mg/kg/injection, schedule: Q01DX005 (ip), vehicle: saline with Tween-80
[3] = dose: 8.0 mg/kg/injection, schedule: Q01DX005 (ip), vehicle: saline with Tween-80
[4] = dose: 16.0 mg/kg/injection, schedule: Q01DX005 (ip), vehicle: saline with Tween-80
[5] = dose: 16.0 mg/kg/injection, schedule: Q01DX001 (ip), vehicle: Klucel (hydroxypropylcellulose) (HPC)
[6] = dose: 32.0 mg/kg/injection, schedule: Q01DX001 (ip), vehicle: Klucel (hydroxypropylcellulose) (HPC)
[7] = dose: 64.0 mg/kg/injection, schedule: Q01DX001 (ip), vehicle: Klucel (hydroxypropylcellulose) (HPC)
[8] = dose: 128.0 mg/kg/injection, schedule: Q01DX001 (ip), vehicle: Klucel (hydroxypropylcellulose) (HPC)

Measured: T/C

CC[C@]12CN3CCc4c([nH]c5ccccc45)[C@@](C(=O)OC)(c4cc5c(cc4OC)N(C)[C@H]4[C@@](O)(C(=O)OC)[C@H](OC(C)=O)[C@]6(CC)C=CCN7CC[C@]54[C@@H]76)CC(C3)[C@H]1O2 (some centres not stated)
inactive: dose: 0.05 mg/kg/injection, schedule: Q01DX005 (ip), vehicle: saline 94 % of control | dose: 0.1 mg/kg/injection, schedule: Q01DX005 (ip), vehicle: saline 93 % of control | dose: 0.2 mg/kg/injection, schedule: Q01DX005 (ip), vehicle: saline 93 % of control | dose: 0.4 mg/kg/injection, schedule: Q01DX005 (ip), vehicle: saline 108 % of control | dose: 0.8 mg/kg/injection, schedule: Q01DX005 (ip), vehicle: saline 103 % of control | dose: 1.6 mg/kg/injection, schedule: Q01DX005 (ip), vehicle: saline 103 % of control | dose: 3.2 mg/kg/injection, schedule: Q01DX005 (ip), vehicle: saline 113 % of control | dose: 6.4 mg/kg/injection, schedule: Q01DX005 (ip), vehicle: saline 103 % of control | dose: 12.8 mg/kg/injection, schedule: Q01DX005 (ip), vehicle: saline 103 % of control

CNc1nc(N(C)C)nc(N(C)C)n1
inactive: dose: 3.12 mg/kg/injection, schedule: Q01DX005 (ip), vehicle: saline 103 % of control | dose: 6.25 mg/kg/injection, schedule: Q01DX005 (ip), vehicle: saline 96 % of control | dose: 12.5 mg/kg/injection, schedule: Q01DX005 (ip), vehicle: saline 97 % of control | dose: 25.0 mg/kg/injection, schedule: Q01DX005 (ip), vehicle: saline 108 % of control | dose: 50.0 mg/kg/injection, schedule: Q01DX005 (ip), vehicle: saline 100 % of control | dose: 100.0 mg/kg/injection, schedule: Q01DX005 (ip), vehicle: saline 113 % of control

O=c1n(CC2CO2)c(=O)n(CC2CO2)c(=O)n1CC1CO1 (configuration not stated)
inactive: dose: 20.0 mg/kg/injection, schedule: Q01DX009 (ip), vehicle: saline 114 % of control | dose: 25.0 mg/kg/injection, schedule: Q01DX009 (ip), vehicle: saline 114 % of control | dose: 40.0 mg/kg/injection, schedule: Q01DX009 (ip), vehicle: saline 124 % of control | dose: 50.0 mg/kg/injection, schedule: Q01DX009 (ip), vehicle: saline 111 % of control | dose: 100.0 mg/kg/injection, schedule: Q01DX009 (ip), vehicle: saline 95 % of control

CN(N=O)C(N)=O
inactive: dose: 2.5 mg/kg/injection, schedule: Q01DX001 (ip), vehicle: Klucel (hydroxypropylcellulose) (HPC) 120 % of control | dose: 5.0 mg/kg/injection, schedule: Q01DX001 (ip), vehicle: Klucel (hydroxypropylcellulose) (HPC) 124 % of control | dose: 80.0 mg/kg/injection, schedule: Q01DX001 (ip), vehicle: Klucel (hydroxypropylcellulose) (HPC) 97 % of control

c1cc2n(n1)CCN2
inactive: [1] 108 % of control | dose: 64.0 mg/kg/injection, schedule: Q01DX005 (ip), vehicle: saline 100 % of control | dose: 128.0 mg/kg/injection, schedule: Q01DX005 (ip), vehicle: saline 102 % of control

Cc1c2cc[n+](C)cc2c(C)c2c1[nH]c1ccc(O)cc12
inactive: dose: 0.12 mg/kg/injection, schedule: Q01DX005 (ip), vehicle: saline 100 % of control | dose: 0.25 mg/kg/injection, schedule: Q01DX005 (ip), vehicle: saline 101 % of control and 112 % of control | dose: 0.5 mg/kg/injection, schedule: Q01DX005 (ip), vehicle: saline 101 % of control

COc1cc2c3c(c1)-c1c(ccc(OC)c1OC)CC3N(CCN(CCCl)CCCl)CC2 (configuration not stated)
inactive: [2] 101 % of control and 108 % of control | [3] 104 % of control and 105 % of control | [4] 108 % of control | dose: 32.0 mg/kg/injection, schedule: Q01DX005 (ip), vehicle: saline with Tween-80 110 % of control

CC(CN1CC(=O)NC(=O)C1)N1CC(=O)NC(=O)C1 (configuration not stated)
inactive: dose: 8.0 mg/kg/injection, schedule: Q01DX001 (ip), vehicle: Klucel (hydroxypropylcellulose) (HPC) 116 % of control | dose: 8.0 mg/kg/injection, schedule: Q01DX005 (ip), vehicle: Klucel (hydroxypropylcellulose) (HPC) 91 % of control and 112 % of control | [5] 87 % of control | dose: 16.0 mg/kg/injection, schedule: Q01DX005 (ip), vehicle: Klucel (hydroxypropylcellulose) (HPC) 110 % of control | [6] 89 % of control and 122 % of control | dose: 32.0 mg/kg/injection, schedule: Q01DX005 (ip), vehicle: Klucel (hydroxypropylcellulose) (HPC) 105 % of control | [7] 98 % of control and 118 % of control | dose: 64.0 mg/kg/injection, schedule: Q01DX005 (ip), vehicle: Klucel (hydroxypropylcellulose) (HPC) 90 % of control | [8] 95 % of control

O=c1[nH]cc(F)c(=O)[nH]1
inactive: dose: 2.0 mg/kg/injection, schedule: Q01DX005 (ip), vehicle: saline 113 % of control | dose: 2.5 mg/kg/injection, schedule: Q01DX005 (ip), vehicle: saline 101 % of control | dose: 4.0 mg/kg/injection, schedule: Q01DX005 (ip), vehicle: saline 108 % of control | dose: 5.0 mg/kg/injection, schedule: Q01DX005 (ip), vehicle: saline 94 % of control | dose: 8.0 mg/kg/injection, schedule: Q01DX005 (ip), vehicle: saline 97 % of control | dose: 10.0 mg/kg/injection, schedule: Q01DX005 (ip), vehicle: saline 97 % of control | dose: 16.0 mg/kg/injection, schedule: Q01DX005 (ip), vehicle: saline 106 % of control | dose: 20.0 mg/kg/injection, schedule: Q01DX005 (ip), vehicle: saline 95 % of control | [1] 106 % of control

Cc1[nH]c(=O)[nH]c(=O)c1N(CCF)CCCl
inactive: dose: 2.0 mg/kg/injection, schedule: Q01DX005 (ip), vehicle: saline with Tween-80 96 % of control and 104 % of control | [2] 97 % of control and 105 % of control | dose: 4.0 mg/kg/injection, schedule: Q## X006 (ip), vehicle: Klucel (hydroxypropylcellulose) (HPC) 111 % of control | [3] 97 % of control and 106 % of control | dose: 8.0 mg/kg/injection, schedule: Q## X006 (ip), vehicle: Klucel (hydroxypropylcellulose) (HPC) 106 % of control | dose: 8.0 mg/kg/injection, schedule: Q#A X002 (ip), vehicle: Klucel (hydroxypropylcellulose) (HPC) 101 % of control | [5] 93 % of control and 102 % of control | [4] 108 % of control and 109 % of control | dose: 16.0 mg/kg/injection, schedule: Q01DX005 (oral), vehicle: Klucel (hydroxypropylcellulose) (HPC) 111 % of control | dose: 16.0 mg/kg/injection, schedule: Q#A X002 (ip), vehicle: Klucel (hydroxypropylcellulose) (HPC) 99 % of control | [6] 92 % of control and 101 % of control and 105 % of control | dose: 32.0 mg/kg/injection, schedule: Q01DX005 (oral), vehicle: Klucel (hydroxypropylcellulose) (HPC) 94 % of control | dose: 32.0 mg/kg/injection, schedule: Q#A X002 (ip), vehicle: Klucel (hydroxypropylcellulose) (HPC) 111 % of control | [7] 101 % of control and 114 % of control | dose: 64.0 mg/kg/injection, schedule: Q01DX001 (oral), vehicle: Klucel (hydroxypropylcellulose) (HPC) 96 % of control and 107 % of control and 111 % of control | [8] 87 % of control | dose: 128.0 mg/kg/injection, schedule: Q01DX001 (oral), vehicle: Klucel (hydroxypropylcellulose) (HPC) 90 % of control and 111 % of control | dose: 256.0 mg/kg/injection, schedule: Q01DX001 (oral), vehicle: Klucel (hydroxypropylcellulose) (HPC) 107 % of control and 86 % of control | dose: 512.0 mg/kg/injection, schedule: Q01DX001 (oral), vehicle: Klucel (hydroxypropylcellulose) (HPC) 115 % of control

O=C(CCCN1CCC(O)(c2cccc(C(F)(F)F)c2)CC1)c1ccc(F)cc1
inactive: dose: 25.0 mg/kg/injection, schedule: Q04DX003 (ip), vehicle: Klucel (hydroxypropylcellulose) (HPC) 103 % of control | dose: 50.0 mg/kg/injection, schedule: Q04DX003 (ip), vehicle: Klucel (hydroxypropylcellulose) (HPC) 97 % of control
